≈ marks a conversion by molar mass, not a printed value.
What was measured:
Assay type in all cases: functional
Acinetobacter baumannii [1] = experiment: Antimicrobial activity against ISAba1 linked with the blaOXA-51-type beta-lactamase harboring Acinetobacter baumannii zeta clonal group isolate 21 expressing ampC, ompA, adeB, adeM, aacC2, blaSHV-5 by Etest method
Acinetobacter baumannii [2] = experiment: Antimicrobial activity against ISAba1 linked with the blaOXA-51-type beta-lactamase harboring Acinetobacter baumannii zeta clonal group isolate 22 expressing ampC, ompA, adeB, adeM, aadA1, aacA4, aacC2, blaSHV-5 by Etest method
Acinetobacter baumannii [3] = experiment: Antimicrobial activity against ISAba1 linked with the blaOXA-51-type beta-lactamase harboring Acinetobacter baumannii beta clonal group isolate 13 expressing ompA, adeB, adeM, aacA4, blaSHV-5 by Etest method
Acinetobacter baumannii [4] = experiment: Antimicrobial activity against Acinetobacter baumannii alpha clonal group isolate 4 expressing ampC, ompA, adeB, adeM, aacC1, aadA1 by Etest method
Acinetobacter baumannii [5] = experiment: Antimicrobial activity against Acinetobacter baumannii nu clonal group isolate 32 expressing ampC, ompA, adeB, adeM, aadB, aadA2 by Etest method
Acinetobacter baumannii [6] = experiment: Antimicrobial activity against ISAba1 linked with the blaOXA-51-type beta-lactamase harboring Acinetobacter baumannii zeta clonal group isolate 26 expressing ampC, ompA, adeB, adeM, aadA1, aacA4, aacC2, blaSHV-5 by Etest method
Acinetobacter baumannii [7] = experiment: Antimicrobial activity against Acinetobacter baumannii nu clonal group isolate 34 expressing ampC, ompA, adeB, adeM by Etest method
Acinetobacter baumannii [8] = experiment: Antimicrobial activity against ISAba1 linked with the blaOXA-51-type beta-lactamase harboring Acinetobacter baumannii zeta clonal group isolate 20 expressing ampC, ompA, adeB, adeM, aacC2 by Etest method
Acinetobacter baumannii [9] = experiment: Antimicrobial activity against Acinetobacter baumannii unique clonal group isolate 38 expressing ampC, ompA, adeB, adeM by Etest method
Acinetobacter baumannii [10] = experiment: Antimicrobial activity against ISAba1 linked with the blaOXA-51-type beta-lactamase harboring Acinetobacter baumannii zeta clonal group isolate 25 expressing ampC, ompA, adeB, adeM, aadA1, aacA4, aacC2, blaSHV-5 by Etest method
Acinetobacter baumannii [11] = experiment: Antimicrobial activity against ISAba1 linked with the blaOXA-51-type beta-lactamase harboring Acinetobacter baumannii beta clonal group isolate 10 expressing ompA, adeB, adeM, aacA4, blaSHV-5 by Etest method
Acinetobacter baumannii [12] = experiment: Antimicrobial activity against ISAba1 linked with the blaOXA-51-type beta-lactamase harboring Acinetobacter baumannii zeta clonal group isolate 23 expressing ampC, ompA, adeB, adeM, aadA1, aacA4, aacC2, aphA6 by Etest method
Acinetobacter baumannii [13] = experiment: Antimicrobial activity against ISAba1 linked with the blaOXA-51-type beta-lactamase harboring Acinetobacter baumannii alpha clonal group isolate 6 expressing ampC, ompA, adeB, adeM, aacC1, aadA1 by Etest method
Acinetobacter baumannii [14] = experiment: Antimicrobial activity against ISAba1 linked with the blaOXA-51-type beta-lactamase harboring Acinetobacter baumannii beta clonal group isolate 17 expressing ompA, adeB, adeM, aacA4, blaSHV-5 by Etest method
Acinetobacter baumannii [15] = experiment: Antimicrobial activity against ISAba1 linked with the blaOXA-51-type beta-lactamase harboring Acinetobacter baumannii beta clonal group isolate 9 expressing ampC, ompA, adeB, adeM by Etest method
Acinetobacter baumannii [16] = experiment: Antimicrobial activity against ISAba1 linked with the blaOXA-51-type beta-lactamase harboring Acinetobacter baumannii unique clonal group isolate 40 expressing ampC, ompA, adeB, adeM, aadA1, aacA4, aacC2, blaSHV-5 by Etest method
Acinetobacter baumannii [17] = experiment: Antimicrobial activity against ISAba1 linked with the blaOXA-51-type beta-lactamase harboring Acinetobacter baumannii beta clonal group isolate 11 expressing ompA, adeB, adeM, blaSHV-5 by Etest method
Acinetobacter baumannii [18] = experiment: Antimicrobial activity against Acinetobacter baumannii eta clonal group isolate 36 expressing ampC, ompA, adeB, adeM by Etest method
Acinetobacter baumannii [19] = experiment: Antimicrobial activity against Acinetobacter baumannii nu clonal group isolate 31 expressing ampC, ompA, adeB, adeM, aadB, aadA2 by Etest method
Acinetobacter baumannii [20] = experiment: Antimicrobial activity against Acinetobacter baumannii alpha clonal group isolate 5 expressing ampC, ompA, adeB, adeM, aacC1, aadA1 by Etest method
Acinetobacter baumannii [21] = experiment: Antimicrobial activity against Acinetobacter baumannii nu clonal group isolate 33 expressing ampC, ompA, adeB, adeM by Etest method
Acinetobacter baumannii [22] = experiment: Antimicrobial activity against ISAba1 linked with the blaOXA-51-type beta-lactamase harboring Acinetobacter baumannii beta clonal group isolate 15 expressing ompA, adeB, adeM, aacA4, blaSHV-5 by Etest method
Acinetobacter baumannii [23] = experiment: Antimicrobial activity against ISAba1 linked with the blaOXA-51-type beta-lactamase harboring Acinetobacter baumannii alpha clonal group isolate 8 expressing ampC, ompA, adeB, adeM, aacC1, aadA1 by Etest method
Acinetobacter baumannii [24] = experiment: Antimicrobial activity against Acinetobacter baumannii alpha clonal group isolate 3 expressing ampC, ompA, adeB, adeM, aacC1, aadA1 by Etest method
Acinetobacter baumannii [25] = experiment: Antimicrobial activity against ISAba1 linked with the blaOXA-51-type beta-lactamase harboring Acinetobacter baumannii beta clonal group isolate 18 expressing ompA, adeB, adeM, aacA4, blaSHV-5 by Etest method
Acinetobacter baumannii [26] = experiment: Antimicrobial activity against ISAba1 linked with the blaOXA-51-type beta-lactamase harboring Acinetobacter baumannii beta clonal group isolate 14 expressing ompA, adeB, adeM, aacA4, blaSHV-5 by Etest method
Acinetobacter baumannii [27] = experiment: Antimicrobial activity against Acinetobacter baumannii lambda clonal group isolate 27 expressing ampC, ompA, adeB, adeM, aadB, aadA1 by Etest method
Acinetobacter baumannii [28] = experiment: Antimicrobial activity against ISAba1 linked with the blaOXA-51-type beta-lactamase harboring Acinetobacter baumannii zeta clonal group isolate 19 expressing ampC, ompA, adeB, adeM, aacC2 by Etest method
Acinetobacter baumannii [29] = experiment: Antimicrobial activity against ISAba1 linked with the blaOXA-51-type beta-lactamase harboring Acinetobacter baumannii beta clonal group isolate 16 expressing ompA, adeB, adeM, aacA4, blaSHV-5 by Etest method
Acinetobacter baumannii [30] = experiment: Antimicrobial activity against ISAba1 linked with the blaOXA-51-type beta-lactamase harboring Acinetobacter baumannii beta clonal group isolate 12 expressing ompA, adeB, adeM, aacA4, aacC2, blaSHV-5 by Etest method
Acinetobacter baumannii [31] = experiment: Antimicrobial activity against ISAba1 linked with the blaOXA-51-type beta-lactamase harboring Acinetobacter baumannii lambda clonal group isolate 28 expressing ampC, ompA, adeM, aadB, aadA1 by Etest method
Acinetobacter baumannii [32] = experiment: Antimicrobial activity against ISAba1 linked with the blaOXA-51-type beta-lactamase harboring Acinetobacter baumannii lambda clonal group isolate 29 expressing ampC, ompA, adeM, aadB, aadA1 by Etest method
Acinetobacter baumannii [33] = experiment: Antimicrobial activity against Acinetobacter baumannii unique clonal group isolate 39 expressing ampC, ompA, adeM by Etest method
Acinetobacter baumannii [34] = experiment: Antimicrobial activity against ISAba1 linked with the blaOXA-51-type beta-lactamase harboring Acinetobacter baumannii zeta clonal group isolate 24 expressing ampC, ompA, adeB, adeM, aadA1, aacA4, aacC2, blaSHV-5 by Etest method
Acinetobacter baumannii [35] = experiment: Antimicrobial activity against Acinetobacter baumannii eta clonal group isolate 35 expressing ampC, ompA, adeB, adeM by Etest method
Acinetobacter baumannii [36] = experiment: Antimicrobial activity against Acinetobacter baumannii unique clonal group isolate 37 expressing ampC, ompA, adeB, adeM by Etest method
Acinetobacter baumannii [37] = experiment: Antimicrobial activity against ISAba1 linked with the blaOXA-51-type beta-lactamase harboring Acinetobacter baumannii alpha clonal group isolate 1 expressing ampC, ompA, adeB, adeM by Etest method
Acinetobacter baumannii [38] = experiment: Antimicrobial activity against ISAba1 linked with the blaOXA-51-type beta-lactamase harboring Acinetobacter baumannii alpha clonal group isolate 7 expressing ampC, ompA, adeB, adeM, blaSHV-5 by Etest method
Acinetobacter baumannii [39] = experiment: Antimicrobial activity against ISAba1 linked with the blaOXA-51-type beta-lactamase harboring Acinetobacter baumannii lambda clonal group isolate 30 expressing ampC, ompA, adeB, adeM, aadB, aadA1 by Etest method
Acinetobacter baumannii [40] = experiment: Antimicrobial activity against Acinetobacter baumannii alpha clonal group isolate 2 expressing ampC, ompA, adeB, adeM, aacC1, aadA1 by Etest method

Row | SMILES | MIC (Acinetobacter baumannii [1]) [µg/mL] | MIC (Acinetobacter baumannii [2]) [µg/mL] | MIC (Acinetobacter baumannii [3]) [µg/mL] | MIC (Acinetobacter baumannii [4]) [µg/mL] | MIC (Acinetobacter baumannii [5]) [µg/mL] | MIC (Acinetobacter baumannii [6]) [µg/mL] | MIC (Acinetobacter baumannii [7]) [µg/mL] | MIC (Acinetobacter baumannii [8]) [µg/mL] | MIC (Acinetobacter baumannii [9]) [µg/mL] | MIC (Acinetobacter baumannii [10]) [µg/mL] | MIC (Acinetobacter baumannii [11]) [µg/mL] | MIC (Acinetobacter baumannii [12]) [µg/mL] | MIC (Acinetobacter baumannii [13]) [µg/mL] | MIC (Acinetobacter baumannii [14]) [µg/mL] | MIC (Acinetobacter baumannii [15]) [µg/mL] | MIC (Acinetobacter baumannii [16]) [µg/mL] | MIC (Acinetobacter baumannii [17]) [µg/mL] | MIC (Acinetobacter baumannii [18]) [µg/mL] | MIC (Acinetobacter baumannii [19]) [µg/mL] | MIC (Acinetobacter baumannii [20]) [µg/mL] | also measured
1 | NCC[C@H](O)C(=O)N[C@@H]1C[C@H](N)[C@@H](O[C@H]2O[C@H](CN)[C@@H](O)[C@H](O)[C@H]2O)[C@H](O)[C@H]1O[C@H]1O[C@H](CO)[C@@H](O)[C@H](N)[C@H]1O [AMIKACIN] | 3 (≈ 5.12 µM) | 48 (≈ 82 µM) | 8 (≈ 13.7 µM) | 2 (≈ 3.42 µM) | 4 (≈ 6.83 µM) | 32 (≈ 54.6 µM) | 3 (≈ 5.12 µM) | 3 (≈ 5.12 µM) | 1.5 (≈ 2.56 µM) | 32 (≈ 54.6 µM) | 6 (≈ 10.2 µM) | 24 (≈ 41 µM) | 1.5 (≈ 2.56 µM) | 8 (≈ 13.7 µM) | 4 (≈ 6.83 µM) | 32 (≈ 54.6 µM) | 3 (≈ 5.12 µM) | 3 (≈ 5.12 µM) | 4 (≈ 6.83 µM) | 2 (≈ 3.42 µM) | MIC (Acinetobacter baumannii [21]): 3 µg/mL (≈ 5.12 µM); MIC (Acinetobacter baumannii [22]): 8 µg/mL (≈ 13.7 µM); MIC (Acinetobacter baumannii [23]): 4 µg/mL (≈ 6.83 µM); MIC (Acinetobacter baumannii [24]): 2 µg/mL (≈ 3.42 µM); MIC (Acinetobacter baumannii [25]): 24 µg/mL (≈ 41 µM); MIC (Acinetobacter baumannii [26]): 8 µg/mL (≈ 13.7 µM); MIC (Acinetobacter baumannii [27]): < 0.5 µg/mL; MIC (Acinetobacter baumannii [28]): 3 µg/mL (≈ 5.12 µM); MIC (Acinetobacter baumannii [29]): 8 µg/mL (≈ 13.7 µM); MIC (Acinetobacter baumannii [30]): 24 µg/mL (≈ 41 µM); MIC (Acinetobacter baumannii [31]): 3 µg/mL (≈ 5.12 µM); MIC (Acinetobacter baumannii [32]): 3 µg/mL (≈ 5.12 µM); MIC (Acinetobacter baumannii [33]): 1.5 µg/mL (≈ 2.56 µM); MIC (Acinetobacter baumannii [34]): 32 µg/mL (≈ 54.6 µM); MIC (Acinetobacter baumannii [35]): 3 µg/mL (≈ 5.12 µM); MIC (Acinetobacter baumannii [36]): 6 µg/mL (≈ 10.2 µM); MIC (Acinetobacter baumannii [37]): 1.5 µg/mL (≈ 2.56 µM); MIC (Acinetobacter baumannii [38]): 2 µg/mL (≈ 3.42 µM); MIC (Acinetobacter baumannii [39]): 48 µg/mL (≈ 82 µM); MIC (Acinetobacter baumannii [40]): 2 µg/mL (≈ 3.42 µM)
2 | C[C@H]1COc2c(N3CCN(C)CC3)c(F)cc3c(=O)c(C(=O)O)cn1c23.C[C@H]1COc2c(N3CCN(C)CC3)c(F)cc3c(=O)c(C(=O)O)cn1c23.O [LEVOFLOXACIN] | > 32 | 16 | > 32 | > 12 | > 12 | 16 | 4 | 12 | 0.13 | 16 | > 32 | 12 | 6 | > 32 | > 32 | > 32 | > 32 | > 6 | > 12 | > 12 | MIC (Acinetobacter baumannii [21]): 4 µg/mL; MIC (Acinetobacter baumannii [22]): > 32 µg/mL; MIC (Acinetobacter baumannii [23]): 32 µg/mL; MIC (Acinetobacter baumannii [24]): > 12 µg/mL; MIC (Acinetobacter baumannii [25]): > 32 µg/mL; MIC (Acinetobacter baumannii [26]): > 32 µg/mL; MIC (Acinetobacter baumannii [27]): 3 µg/mL; MIC (Acinetobacter baumannii [28]): 12 µg/mL; MIC (Acinetobacter baumannii [29]): > 32 µg/mL; MIC (Acinetobacter baumannii [30]): > 32 µg/mL; MIC (Acinetobacter baumannii [33]): 0.09 µg/mL; MIC (Acinetobacter baumannii [34]): 16 µg/mL; MIC (Acinetobacter baumannii [35]): > 6 µg/mL; MIC (Acinetobacter baumannii [36]): 6 µg/mL; MIC (Acinetobacter baumannii [37]): 16 µg/mL; MIC (Acinetobacter baumannii [38]): 6 µg/mL; MIC (Acinetobacter baumannii [39]): 16 µg/mL; MIC (Acinetobacter baumannii [40]): > 12 µg/mL

From ChEMBL document CHEMBL1671617, “Correlation of antimicrobial resistance with beta-lactamases, the OmpA-like porin, and efflux pumps in clinical isolates of Acinetobacter baumannii endemic to New York City” (2008)
